Results: PubChem BioAssay (NCI)
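Assay format: 96-well plates, 48-hour exposure. Definition used: TGI = concentration required for complete inhibition of growth.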

Key:
Experiment in all cases: NCI tumour cell line growth inhibition, 48 h
[1] = test system: A498 renal
[2] = test system: A549 NSCLC
[3] = test system: ACHN renal
[4] = test system: CCRF-CEM leukemia
[5] = test system: COLO 205 colon
[6] = test system: DU-145 prostate
[7] = test system: HCC-2998 colon
[8] = test system: HCT-116 colon
[9] = test system: HCT-15 colon
[10] = test system: HOP-92 NSCLC
[11] = test system: HS 578T breast
[12] = test system: HT29 colon
[13] = test system: K-562 leukemia
[14] = test system: KM12 colon
[15] = test system: LOX IMVI melanoma
[16] = test system: M14 melanoma
[17] = test system: MCF7 breast
[18] = test system: MDA-MB-231 breast
[19] = test system: MDA-MB-435
[20] = test system: MDA-N
[21] = test system: MOLT-4 leukemia
[22] = test system: NCI-H226 lung
[23] = test system: NCI-H23 lung
[24] = test system: NCI-H460 lung
[25] = test system: NCI-H522 lung
[26] = test system: NCI/ADR-RES ovarian
[27] = test system: OVCAR-3 ovarian
[28] = test system: OVCAR-4 ovarian
[29] = test system: OVCAR-8 ovarian
[30] = test system: PC-3 prostate
[31] = test system: RXF 393 renal
[32] = test system: SF-268 CNS
[33] = test system: SF-295 CNS
[34] = test system: SK-MEL-28 melanoma
[35] = test system: SK-MEL-5 melanoma
[36] = test system: SK-OV-3 ovarian
[37] = test system: SN12C renal
[38] = test system: SNB-19 CNS
[39] = test system: SNB-75 CNS
[40] = test system: SR leukemia
[41] = test system: SW-620 colon
[42] = test system: T-47D breast
[43] = test system: TK-10 renal
[44] = test system: U251 CNS
[45] = test system: UACC-257 melanoma
[46] = test system: UO-31 renal
[47] = test system: 786-0 renal
[48] = test system: CAKI-1 renal
[49] = test system: EKVX NSCLC
[50] = test system: HL-60(TB) leukemia
[51] = test system: HOP-62 NSCLC
[52] = test system: IGROV1 ovarian
[53] = test system: MALME-3M melanoma
[54] = test system: OVCAR-5 ovarian
[55] = test system: SF-539 CNS
[56] = test system: UACC-62 melanoma
[57] = test system: RPMI-8226 leukemia
[58] = test system: SK-MEL-2 melanoma

Measured: TGI

Nc1c(Br)cc2c(c1Br)Cc1cc(Br)ccc1-2
not listed: [47] | [48] | [49] | [50] | [51] | [52] | [53] | [54] | [55] | [56] | [57] | [58]
> 100 µM: all other assays above

O=C(CCC(C(=O)OCc1ccccc1)C(=O)OCc1ccccc1)Nc1ccc(OCc2ccccc2)cc1
34 µM: [29]
32.8 µM: [17]
79.4 µM: [9]
32.2 µM: [47]
27.3 µM: [8]
47.2 µM: [30]
not listed: [35] | [57] | [58]
> 100 µM: all other assays above

COC(=O)Cc1cccc2c1CCC2=O
not listed: [48] | [58]
> 100 µM: all other assays above

O=C(Nc1ccccn1)/C(=C\C(=O)c1ccc(Cl)cc1)Nc1ccccc1
not listed: [1] | [3] | [8] | [11] | [22] | [24] | [25] | [26] | [27] | [38] | [44] | [46] | [54] | [55] | [58]
> 10 µM: all other assays above

O=C1NC2c3c(I)sc(I)c3/C(=N\O)C2O1 (stereo unspecified)
35.1 µM: [49]
70.4 µM: [11]
60.6 µM: [41]
67.8 µM: [32]
40.2 µM: [27]
47.7 µM: [26]
95.8 µM: [18]
44.5 µM: [31]
83.5 µM: [50]
68.1 µM: [10]
32.7 µM: [46]
48.8 µM: [5]
80.3 µM: [4]
50.2 µM: [53]
76.9 µM: [44]
56.8 µM: [23]
89.8 µM: [28]
43.4 µM: [29]
42.6 µM: [55]
57.1 µM: [47]
45 µM: [52]
33.6 µM: [3]
75.4 µM: [8]
33.4 µM: [12]
58.2 µM: [38]
not listed: [25] | [35]
> 100 µM: all other assays above
